Consider one molecule from article PMC9942793 (Proceedings of the National Academy of Sciences of the …, 2023).

The structures appear in SMILES notation.

For this test, the target named is T1, SLO3 (Homo sapiens, UniProt A8MYU2).
T1 sequence (A8MYU2 1-1149): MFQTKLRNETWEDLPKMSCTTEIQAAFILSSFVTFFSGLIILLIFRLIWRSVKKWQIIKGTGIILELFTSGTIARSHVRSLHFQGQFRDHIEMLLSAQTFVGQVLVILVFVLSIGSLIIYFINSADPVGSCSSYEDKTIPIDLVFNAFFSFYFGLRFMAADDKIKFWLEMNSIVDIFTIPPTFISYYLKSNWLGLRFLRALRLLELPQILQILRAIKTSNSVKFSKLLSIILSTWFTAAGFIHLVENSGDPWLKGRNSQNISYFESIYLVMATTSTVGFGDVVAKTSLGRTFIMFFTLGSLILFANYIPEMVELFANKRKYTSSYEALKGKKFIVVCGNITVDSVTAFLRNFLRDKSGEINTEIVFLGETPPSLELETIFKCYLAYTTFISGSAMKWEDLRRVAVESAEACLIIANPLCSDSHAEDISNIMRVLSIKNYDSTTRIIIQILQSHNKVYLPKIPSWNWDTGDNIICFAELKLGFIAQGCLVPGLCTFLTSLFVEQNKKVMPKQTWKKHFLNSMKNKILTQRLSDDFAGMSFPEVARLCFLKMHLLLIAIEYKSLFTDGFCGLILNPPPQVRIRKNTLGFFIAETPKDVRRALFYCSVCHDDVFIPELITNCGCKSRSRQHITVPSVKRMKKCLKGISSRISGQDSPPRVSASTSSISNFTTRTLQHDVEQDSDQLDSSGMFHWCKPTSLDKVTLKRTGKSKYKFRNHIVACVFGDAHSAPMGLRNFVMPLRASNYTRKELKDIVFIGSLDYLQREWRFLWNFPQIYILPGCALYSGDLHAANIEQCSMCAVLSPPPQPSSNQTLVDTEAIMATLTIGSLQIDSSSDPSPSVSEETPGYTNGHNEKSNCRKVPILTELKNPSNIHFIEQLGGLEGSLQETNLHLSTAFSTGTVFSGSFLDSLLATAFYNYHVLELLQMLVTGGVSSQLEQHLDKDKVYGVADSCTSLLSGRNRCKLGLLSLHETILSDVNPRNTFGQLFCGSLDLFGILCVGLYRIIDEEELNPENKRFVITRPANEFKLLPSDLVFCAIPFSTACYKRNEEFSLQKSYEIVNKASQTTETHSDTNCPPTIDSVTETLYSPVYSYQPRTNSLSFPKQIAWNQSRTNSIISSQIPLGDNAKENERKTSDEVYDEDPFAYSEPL
T1 sequence (Q8N7C0 24-313 partner): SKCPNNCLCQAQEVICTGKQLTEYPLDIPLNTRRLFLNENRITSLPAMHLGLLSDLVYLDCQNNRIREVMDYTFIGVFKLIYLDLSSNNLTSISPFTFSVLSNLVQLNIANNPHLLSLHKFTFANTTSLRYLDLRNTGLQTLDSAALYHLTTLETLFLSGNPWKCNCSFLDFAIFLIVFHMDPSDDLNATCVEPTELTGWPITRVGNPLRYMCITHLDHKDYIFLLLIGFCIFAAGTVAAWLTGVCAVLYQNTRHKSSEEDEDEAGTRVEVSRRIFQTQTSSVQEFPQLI
Description: Tl+ flux assay. Format: cell-based.

In the case of `FC(F)(F)c1cc(NC(=S)Nc2ccc(Br)cc2-c2nnn[nH]2)cc(C(F)(F)F)c1` [NS11021], the “Tl+ flux assay (activation; 100 μM used in the screen)” value is recorded as “found that the SLO1 activator NS11021 also activates SLO3 at high concentrations (Fig. 1B)”.
